Data published in publication PMC7722354, “7-Substituted 2-Nitro-5,6-dihydroimidazo[2,1-b][1,3]oxazines: Novel Antitubercular Agents Lead to a New Preclinical Candidate for Visceral Leishmaniasis” (Journal of Medicinal Chemistry, 2017).
Values after ≈ are worked out from the molar mass of the structure shown. Where two headings read alike, the source gives them in different places. Marks after values point to notes of the source that are not given here.

Assays:
Leishmania infantum = test: L. inf growth inhibition in mouse macrophages (LMPH); type: cell-based; conditions: Macrophage, mean of at least two determinations
[1] = kinetic aqueous solubility (Method A); type: physicochemical; conditions: water, pH 7, kinetic
[2] = tested on: human lung fibroblasts (MRC-5 cells); test: cytotoxicity toward MRC-5 cells (LMPH); type: cell-based; conditions: MRC5
Leishmania donovani [3] = test: L. don amastigote mouse macrophage-based luciferase assay (CDRI); type: cell-based; conditions: in mouse macrophages, single test (CDRI)
M. tb, strain H37Rv [4] = test: LORA minimum inhibitory concentration assay (hypoxic); type: cell-based; conditions: Mycobacterium tuberculosis
M. tb, strain H37Rv [5] = test: MABA minimum inhibitory concentration assay (aerobic); type: cell-based, Mycobacterium tuberculosis
Trypanosoma cruzi = test: T. cruzi growth inhibition on MRC-5 cells (LMPH); type: cell-based; conditions: MRC5
L. donovani [6] = test: acute VL infection assay (L. don mouse model, LSHTM); conditions: Leishmania donovani, po, 120 h; 50 mg/kg orally once daily 5 days; liver parasite burden; read-out: in vivo efficacy against L. don (mouse), % inhibition
[7] = tested on: human lung fibroblasts (MRC-5 cells); design: method as in PMID 26901446; conditions: cytotoxicity; cited from earlier work
[8] = tested on: Salmonella strains (TA98 and TA100)
Text: Ames Test. […] Two Salmonella strains (TA98 and TA100) were employed, both in the presence and absence of metabolic activation (rat liver S9). Positive controls (2-aminoanthracene, 2-nitrofluorene, and sodium azide) and a negative (DMSO solvent) control were included.

Leishmania donovani [9] = tested on: Leishmania donovani; design: method as in PMID 26901446; conditions: in mouse macrophages; cited from earlier work
Caco-2 = conditions: cited from earlier work
mouse pharmacokinetics = type: in vivo; conditions: mice, oral 40 mg/kg
L. donovani [10] = conditions: L. don hamster model, 50 mg/kg, 5 days oral dosing
Experimental: Groups of hamsters having an appropriate infection grading (5–15 amastigotes/100 spleen cell nuclei) were treated with test compounds, starting on day 17 and dosing orally once per day for 5 days, according to the usual procedure.[10] Post-treatment splenic biopsies taken 12 days after the first dose were employed to determine the intensity of infection, as previously reported.[10]

[11] = water (pH 7), 20 °C, read-out: aq solubility pH 7
[12] = Mycobacterium tuberculosis, H37RV, aerobic, read-out: MIC MABA

SMILES	IC50 (Leishmania infantum) [nM]	solubility at 15 min [1, 11] [µg/mL]	IC50 [2] [nM]	IC50 (Leishmania donovani [3]) [nM]	MIC (M. tb, strain H37Rv [4]) [µM]	MIC (M. tb, strain H37Rv [5]; [12]) [µM]	IC50 (Trypanosoma cruzi) [nM]	inhibition in vivo at 50 mg/kg (L. donovani [6]) [%]	other results
O=[N+]([O-])c1cn2c(n1)OC(COc1ncc(-c3ccc(F)cc3)cn1)CC2 (centres unmarked) [compound 129]	290	1.8 (≈ 4.85 µM)	> 64000	100	1.7 (≈ 0.631 µg/mL)	0.02 to 0.04 (≈ 0.00743 to 0.0149 µg/mL)	170	85	MIC (M. tb, strain H37Rv [5]; aerobic, read-out: MIC MABA): 0.04 µM (≈ 0.0149 µg/mL)
C[C@]1(COc2ccc(OC(F)(F)F)cc2)Cn2cc([N+](=O)[O-])nc2O1 [compound 4]									IC50 [7]: > 64000 nM; logD (physchem): 3.1; mutagenic effect (Ames test) [8]: no; IC50 (Leishmania donovani [9]): 30 nM; permeability Papp A to B (Caco-2): 22.6 × 10^–6 cm/s; permeability Papp B to A (Caco-2): 24.7 × 10^–6 cm/s
O=[N+]([O-])c1cn2c(n1)OC(COCc1ccc(-c3ccc(OC(F)(F)F)cc3)cc1)CC2 (centres unmarked) [compound 28]	400	0.058 (≈ 0.129 µM)	> 64000	190	1.5 (≈ 0.674 µg/mL)	0.055 (≈ 0.0247 µg/mL)	2100	49	solubility at 15 min ([1]; pH 7, read-out: solubility at pH 7): ~0.058 µg/mL (≈ 0.129 µM); AUCinf (extrapolated) (mouse pharmacokinetics): 47.1^e μ·h/mL; Cmax (mouse pharmacokinetics): 3300 ng/mL; Tmax (mouse pharmacokinetics): 8.0 h; t1/2 (mouse pharmacokinetics): 5.2 h
O=[N+]([O-])c1cn2c(n1)OC(COc1ccc(-c3ccc(F)cc3)cc1)CC2 (centres unmarked) [compound 49]				10	> 128				% inhibition of parasite infection in the spleen (L. donovani [10]): 51%; MIC (M. tb, strain H37Rv [5]; Mycobacterium tuberculosis, H37RV, read-out: MIC MABA, aerobic): 0.18 µM (≈ 0.0665 µg/mL)
